Assay: gradient 5% acetonitrile 3 min, to 50% in 2 min, to 85% in 15 min, held 3 min, 100 µL/min
Conditions: column: Zorbax Extend-C18 2.1 x 50 mm; eluents: water / acetonitrile, 0.1% formic acid
Method in brief: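 Values are retention times taken from adduct peaks that software picked and an analyst inspected. The pure standards were run as mixtures of ~100 molecules on HPLC linked to a quadrupole time-of-flight mass spectrometer, in positive and negative ionization mode. A Zorbax Extend-C18 column (2.1 × 50 mm, 1.8 μm) was used at 100 μL/min with water and acetonitrile, each including 0.1% formic acid.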

| RP-LC retention time | SMILES |
| --- | --- |
| 786 s | CCSc1ccccc1C(=O)NCc1ccsc1 |
| 604 s | O=C(c1ccc2ccccc2n1)N1CC(n2ccnc2)C1 |
| 850 s | Cc1ccc(NC(=O)Cc2csc3nc(-c4ccc(C)c(C)c4)cn23)cc1C |
| 711 s | CCN1C(=O)c2cccnc2Sc2cc(NC(=O)C(C)C)ccc21 |
| 630 s | Cc1c(NC(=O)Cc2csc(NC(=O)C(C)(C)C)n2)c(=O)n(-c2ccccc2)n1C |
| 774 s | CCOC(=O)C1CCN(C(=O)c2sc(Nc3cccc(C)n3)nc2C)CC1 |
| 672 s | Cc1nn(-c2ccccc2)c(C)c1S(=O)(=O)N1CCC(C(=O)NCCN2CCCCCC2)CC1 |
| 753 s | CCn1cnc2ccc(-c3noc(-c4ccc(OC)cc4)n3)cc21 |
| 1020 s | O=C(Cc1ccccc1Cl)N1CCCC1c1nc(-c2ccccc2)no1 (stereo not given) |
| 1200 s | Cc1nc2cc(-c3noc(COc4ccccc4)n3)ccc2n(C2CCCC2)c1=O |
| 1020 s | Cc1ccsc1C(=O)N1CCC(N2C(=O)C(OCC3CC3)C23CCCCC3)CC1 (stereo not given) |
| 715 s | CN(C)C(=O)CN1C(=O)COc2ccc(C(=O)N3CCN(c4ccc(F)cc4)CC3)cc21 |
| 833 s | CCOC(=O)c1nc(NCc2cccc(Cl)c2)c2ccccc2n1 |
| 630 s | Cn1nccc1C(=O)N1CCc2c(c(CO)nn2Cc2ccccc2)C1 |
| 643 s | CCOC(=O)CNC(=O)N1CCc2c(c(C(=O)N3CCCCC3)nn2C)C1 |
| 787 s | COc1ccccc1N1CCN(CCN2C(=O)c3ccccc3C(C)(C)C2=O)CC1 |
| 726 s | CCN(CC)c1nc2ccsc2c(=O)n1CCC(=O)NC1CCCC1 |
| 908 s | CCOc1ccc(-c2noc(CSc3nccn3-c3ccc(C)cc3)n2)cc1OC |
| 1100 s | O=C1N(c2cccc(Cl)c2)c2ncccc2S(=O)(=O)N1Cc1ccccc1 |
| 595 s | Cc1ccc(C(=O)N2CC(n3cc(COCC4CC4)nn3)C2)c(=O)[nH]1 |
| 891 s | CCn1c(C(=O)Nc2cccc(C)n2)cc2c(=O)oc3ccccc3c21 |
| 984 s | COc1ccc(C(=O)N2C[C@H](c3nc(-c4ccccc4)no3)[C@@H](C)C2)cc1 |

| RP-LC retention time | SMILES |
| --- | --- |
| 588 s | CN(C)c1ncccc1C(=O)NC1CCCCC1 |
| 595 s | CCCNC(=O)C1CCCN(c2ccc(SCC(=O)NCc3ccc(OC)cc3)nn2)C1 (stereo not given) |
| 797 s | CCn1cnc(S(=O)(=O)N2CCCC(C(=O)Nc3cccc(Cl)c3)C2)c1 (stereo not given) |
| 893 s | O=c1ccc(-c2ccc3c(c2)OCO3)nn1CCc1nc(-c2ccc3c(c2)OCO3)no1 |
| 805 s | Cc1nnc2ccc(-c3noc(Cc4ccc(F)cc4)n3)cn12 |
| 730 s | CS(=O)(=O)N1CCCC1C(=O)Nc1cccc(F)c1 (stereo not given) |
| 564 s | CCN1CCN(CCNC(=O)Cn2c(=O)n(-c3ccccc3)c3ncccc32)CC1 |
| 684 s | Cc1cccc(C(=O)N2C(C(=O)NCC3CCCO3)COC23CCN(C(=O)C(C)(C)C)CC3)c1 (stereo not given) |
| 788 s | CCn1cnc(S(=O)(=O)N2CCCC(C(=O)NC3CCCCCCC3)C2)c1 (stereo not given) |
| 575 s | CCn1c(N2CCCC(C(=O)NCc3cccnc3)C2)cc(=O)n(C)c1=O (stereo not given) |
| 850 s | O=C(NCc1ccc(F)cc1)N1CCN(Cc2nc3cc(-c4ccccc4)ccc3o2)CC1 |
| 637 s | O=C(NC1CCCC1)c1c2c(nc3ccccc13)CCC2 |
| 849 s | O=C(CCn1nnc2cc(-c3noc(-c4ccc(F)cc4)n3)ccc21)N1CCOCC1 |
| 898 s | COc1cccc(NC(=O)CN2C(=O)CC(c3cccs3)=Nc3ccccc32)c1 |
| 888 s | O=C(NCc1ccc(F)cc1)c1nnc(-c2ccc(S(=O)(=O)N3CCCC3)cc2)o1 |
| 900 s | CCC(=O)N1CCc2sc(C(=O)N3CCN(c4cccc(Cl)c4)CC3)cc2C1 |
| 588 s | O=C(c1cccnc1)N1CCN(c2nnnn2-c2ccccc2)CC1 |
| 745 s | COc1ccccc1N1C(=O)N(c2ccc([N+](=O)[O-])cc2)C2CS(=O)(=O)CC21 (stereo not given) |
| 735 s | Cc1cc(C)cc(C(=O)N2CCN(c3nc(C)cc(N4CCCC4)n3)CC2)c1 |
| 754 s | C=CC(=O)Nc1cccc(Sc2nc(Nc3ccc(N4CCN(C)CC4)cc3)ncc2Cl)c1 |
| 815 s | CC(C)c1nnc(-c2ccc(S(=O)(=O)N3CCCC3)o2)o1 |

Second part, the compound before the results:

| SMILES | RP-LC retention time |
| --- | --- |
| O=S(=O)(CCOc1ccccc1)NCc1ccc2c(c1)OCO2 | 806 s |
| O=S(=O)(c1ccc(F)c(F)c1)N1CCc2nc(-c3ccccc3)ncc2C1 | 1090 s |
| CCn1c(=O)c2ccn(CC(=O)NCc3ccc(C)cc3)c2n(CC)c1=O | 706 s |
| O=C([C@@H]1C[C@H](Oc2cccnc2)CN1C(=O)C1CC=CC1)N1CCCC1 | 571 s |
| COc1ccc(C(=O)N2CCC(COc3ccc(C(=O)NC(C)C)cc3)CC2)cc1F | 834 s |
| O=S(=O)(c1cccn2c(SCc3ccccc3)nnc12)N1CCN(c2ccc(F)cc2)CC1 | 958 s |
| CCc1nn2c(CNC(=O)c3ccn(CC)n3)c(-c3ccccc3)nc2s1 | 822 s |
| Nc1ccc2ncnc(N3CCCCC3)c2c1 | 593 s |
| CCCn1nnc2cc(-c3noc(C4CC(=O)N(c5cccc(Cl)c5)C4)n3)ccc21 (stereo not given) | 994 s |
| COc1ccccc1N1CCN(C(=O)Cn2c(N3CCc4ccccc4C3)nc(C)cc2=O)CC1 | 759 s |
| Cc1[nH]c(C)c(S(=O)(=O)N2CCC(C(=O)NC3CCCC3)CC2)c1C(=O)N1CCCC1 | 659 s |
| CC(C)NC(=O)N1CCC(c2noc(-c3ccncc3)n2)C1 (stereo not given) | 626 s |
| O=C(c1ccsc1)N1CCCC1Cc1noc(-c2cnccn2)n1 (stereo not given) | 707 s |
| O=S(=O)(c1cccs1)N1CCN(c2cnn3c(C4CC4)nnc3c2)CC1 | 683 s |
| CC1CCCN(C(=O)c2cn(-c3ccc(S(=O)(=O)N4CCCC(C)C4)cn3)cn2)C1 (stereo not given) | 939 s |
| Cc1cc2n(n1)CCCN2C(=O)CCC(=O)N1CCN(c2ccccc2)CC1 | 678 s |
| COCCn1c(CC2CCN(C(=O)Nc3ccc(F)c(Cl)c3)C2)nc2cccnc21 (stereo not given) | 660 s |
| O=C(Cn1nc(C(=O)N2CCCC2)c2ccccc21)Nc1cccc(Cl)c1 | 875 s |
| Cc1sc2ccn(CC(C)C)c(=O)c2c1C(=O)N1CCCCC1 | 837 s |
| COc1ccc(CCC(=O)N2CCn3c(C)nnc3C2)cc1 | 569 s |
| Cc1oc(-c2ccc(NC(=O)Cc3ccccc3Cl)cc2)nc1Cn1cccn1 | 899 s |
| O=C(c1ccc(F)cc1Cl)N1CCC2(CC1)NC(=O)N(CCOc1ccccc1)C2=O | 764 s |
| CCCNC(=O)C1CCN(c2ccc(SCC(=O)Nc3cc(Cl)ccc3OC)nn2)CC1 | 730 s |
| CCCC(=O)N1CCCN(C2=NS(=O)(=O)C(c3ccc(Cl)cc3)=C2C)CC1 | 834 s |

| SMILES | RP-LC retention time |
| --- | --- |
| CCC(=O)N1CCc2cc(N3CC(C(=O)NC(C)c4ccccc4)CC3=O)ccc21 (stereo not given) | 750 s |
| Cc1cc2c(c(=O)n(-c3ccc(F)cc3)c(=O)n2CC(=O)Nc2ccc(F)cc2)n1C | 825 s |
| O=C(c1cccc(F)c1)N1CCC2(CC1)N=C(c1ccccc1)NO2 | 739 s |
| CN1CCCC1c1nc(C2CN(C(=O)c3cnccn3)C2)no1 (stereo not given) | 546 s |
| CCCn1cc(C(=O)N2CCCc3ccccc32)c2nn(-c3ccccc3)c(=O)c-2c1 | 836 s |
| CCc1nn(C(C)C(=O)NCCc2c[nH]c3ccccc23)c(=O)c2cc3occc3n12 (stereo not given) | 851 s |
| OCc1nc2ccccc2n1C/C=C/c1ccccc1 | 579 s |
| COc1ccc(CNC(=O)N2c3ccccc3CC2c2nc(C3CC3)no2)cc1 (stereo not given) | 1180 s |
| O=C(Cc1nc(-c2ccccc2)n[nH]1)Nc1ccc(Cl)cc1 | 789 s |
| Cc1c(Cl)cccc1NC(=O)CC1COc2ccccc2NC1=O (stereo not given) | 756 s |
| Cc1ccc(Cl)cc1N1CCN(S(=O)(=O)c2nn(C)cc2C(=O)NCCN(C)C)CC1 | 732 s |
| O=C(NCc1cccc(Cl)c1)c1ccc2c(c1)ncn2CCN1CCCC1 | 601 s |
| COCCCNC(=O)N1CCCCCC1c1ccc(C)cc1 (stereo not given) | 939 s |
| CCOc1cccc2cc(C(=O)Nc3ccccc3S(C)(=O)=O)oc12 | 931 s |
| COc1ccc(N2C=C(C(=O)N3CCCC3)S(=O)(=O)c3ccccc32)cc1 | 764 s |
| COCCN1CN=C(Nc2nc(C)c3cccc(C)c3n2)NC1 | 644 s |
| CC(C)CC(=O)N1CCc2cc(CNS(=O)(=O)Cc3ccccc3)ccc21 | 610 s |
| CCCCn1cc(S(=O)(=O)Nc2ccc(OC)cc2)c2cccnc21 | 896 s |
| CC1CCCCN1CCCNC(=O)C1CCCN(c2ncnc3c2nc2n3CCCCC2)C1 (stereo not given) | 589 s |
| CNC(=O)CCC(=O)N1c2ccccc2NC2=C(C(=O)CC(C)(C)C2)C1c1ccccc1 (stereo not given) | 686 s |
| Cc1cc(OCC(=O)N2CCN(c3ccccn3)CC2)nc2c1c(C)nn2-c1ccccc1 | 693 s |
| CC(C)(C)c1noc(-c2cccnc2-n2cnc(C(=O)NC3CCCC3)c2)n1 | 968 s |
| CCC(CO)Nc1ncc([N+](=O)[O-])c(N)n1 (stereo not given) | 570 s |

Source: the METLIN SMRT retention time set (Domingo-Almenara et al. 2019)
